Publication PMC5321753, “Enhanced expression of ADCY1 underlies aberrant neuronal signalling and behaviour in a syndromic autism model” (Nature Communications, 2017)

Experiments:
Fmr1 KO mice [1] = tested on: Fmr1 KO mice; set-up: method as in PMID 27445731; conditions: cited from earlier work
WT and Fmr1 KO mice [2] = assay: Audiogenic seizures (AGS) induced by 120 dB sound; format: in vivo, mouse
Procedure: Audiogenic seizures (AGS) were examined with 21- to 24-day-old-mouse (7), as this phenotype is dependent on the age of the mouse and only detected in juvenile Frm1 KO mouse. Mouse was placed in a box (30 cm L × 17 cm W × 12 cm H) with a flat plastic lid. A personal alarm (Streetwise, item # SWPDAL) was taped to the lid of the box and wired to a DC power supply to keep the sound amplitude constant. The mouse was allowed to acclimatize to the box for 5 min, following which 120 dB sound was emitted from the alarm for 2 min. The number of mice undergoing seizure activity within the 2-min period was counted. Audiogenic seizures were classified into different stages: wild running, clonic/tonic seizure and death.
(§1) NB001 was dissolved in water to give a 25 mM stock solution. The stock was diluted in saline and IP injected into mice at 1 mg kg^−1 body weight. In all cases, the drug was administered 1 h before testing. Control mice were treated similarly but injected with saline.
(§2) To inhibit phosphodiesterase (PDE), rolipram was dissolved in 10% kolliphore and IP injected into mice at 0.5 or 0.03 mg kg^−1. The use of the higher dose (that is, 0.5 mg kg^−1) was to ensure sufficient inhibition of PDE[44][45]. […] Rolipram- or vehicle (10% kolliphore)-injected mice were examined with light/dark test and AGS 30 min after drug administration.

fly model of FXS = tested on: fly model of FXS; set-up: method as in PMID 25568131; conditions: cited from earlier work
WT and Fmr1 KO mice [3] = assay: Light/dark test; format: in vivo, mouse
Procedure: Light/dark test was examined as described in our previous study. Light/dark test was performed using 3-month (+/−10 days) old mouse, which was first placed in the dark half of the chamber (Coulbourn Instruments). After 1 min of habituation, the trap door was opened and the mouse was allowed to move freely between the two chambers for 5 min. The time spent in each chamber and the number of entries into the lit side were recorded.
as §1, §2

Fmr1 KO mice [4] = tested on: Fmr1 KO mice; set-up: method as in PMID 25568131; conditions: cited from earlier work
cAMP = tested on: cAMP; set-up: method as in PMID 9844008; conditions: lower dose 0.03 mg kg^-1; cited from earlier work
ERK1/2 = ERK1/2 activation in cultured hippocampal neurons after DHPG; format: cell-based, mouse; conditions: both WT and Fmr1 KO neurons, DHPG 100 μM
Procedure: (§3) Primary hippocampal neurons were cultured as described, and used for the examination of mGluR1/5-mediated signalling and protein synthesis. Neurons were treated with 100 μM DHPG ((RS)-3,5-dihydroxyphenylglycine). Protein level and mRNA level were examined by western blot (for ADCY1, β-actin, p-ERK1/2 and ERK1/2) and quantitative RT-PCR (for Adcy1 and Gapdh mRNA), respectively.

ADCY1 = ADCY1 protein (western blot) and Adcy1 mRNA (qRT-PCR) in cultured hippocampal neurons after DHPG; format: cell-based, mouse; conditions: DHPG 100 μM
Procedure: as §3

[5] = Fmr1 KO mice, rolipram 0.03 mg per kg, 30 min before 120 dB stimulation
[6] = Fmr1 KO mice, rolipram 0.5 mg kg^-1 IP, 30 min before testing, 120 dB
[7] = Fmr1 KO mice, rolipram at 0.5 or 0.03 mg kg^-1, systemic
[8] = WT mice, rolipram 0.03 mg per kg, 30 min before 120 dB stimulation
[9] = WT mice, rolipram 0.5 mg kg^-1 IP, 30 min before testing, 120 dB

COc1ccc(C2CNC(=O)C2)cc1OC1CCCC1 (stereo not drawn) [rolipram]
signalling abnormalities in the hippocampus (Fmr1 KO mice [1]): failed to correct | % Clonic/tonic seizure (WT and Fmr1 KO mice [2]; [5]): 35.7% | % Death (WT and Fmr1 KO mice [2]; [5]): 14.3% | % Wild running (WT and Fmr1 KO mice [2]; [5]): 50% | % Clonic/tonic seizure (WT and Fmr1 KO mice [2]; [6]): 46.7% | % Death (WT and Fmr1 KO mice [2]; [6]): 13.3% | % Wild running (WT and Fmr1 KO mice [2]; [6]): 60% | AGS (WT and Fmr1 KO mice [2]; [7]): did not correct | % Clonic/tonic seizure (WT and Fmr1 KO mice [2]; [8]): 0% | % Death (WT and Fmr1 KO mice [2]; [8]): 0% | % Wild running (WT and Fmr1 KO mice [2]; [8]): 13.3% | % Clonic/tonic seizure (WT and Fmr1 KO mice [2]; [9]): 0% | % Death (WT and Fmr1 KO mice [2]; [9]): 0% | % Wild running (WT and Fmr1 KO mice [2]; [9]): 25% | learning and memory in the fly model of FXS (fly model of FXS): improved | abnormal behaviour in light/dark test (WT and Fmr1 KO mice [3]; [7]): did not correct | behavioral changes in light/dark test (treatment effect) (WT and Fmr1 KO mice [3]; WT or Fmr1 KO mice, rolipram 0.03 mg per kg i.p., 30 min after injection): n.s. | behavioural changes in light/dark test (drug effect) (WT and Fmr1 KO mice [3]; WT or Fmr1 KO mice, rolipram 0.5 mg kg^-1 i.p., 30 min after injection): does not cause significant behavioural changes | exaggerated mGluR1/5-mediated long-term synaptic depression phenotype (Fmr1 KO mice [4]): rescued | cAMP changes (cAMP): not sufficient to cause cAMP changes

NC(C(=O)O)c1cc(O)cc(O)c1 (racemic) [DHPG, (RS)-3,5-dihydroxyphenylglycine]
downstream intracellular signalling target ERK1/2 (ERK1/2): activates | ADCY1 protein level in Fmr1 KO neurons (ADCY1; cultured Fmr1 KO hippocampal neurons): no DHPG-triggered increase | Adcy1 mRNA levels (ADCY1; cultured WT and Fmr1 KO hippocampal neurons): did not alter | ADCY1 protein level in WT neurons (ADCY1; cultured WT hippocampal neurons): up-regulation
